# From US9234000B2, “Benzylamine derivatives as inhibitors of plasma kallikrein” (KalVista Pharmaceuticals Limited, priority 2011, dated 2016)
# Where two headings read alike, the source gives them in different places.
# Tests used:
# [1] = physchem; settings: pH 7, aqueous buffer, kinetic from dmso stock
# Description: Determination of the Kinetic Solubility in Phosphate Buffer
# After shaking for approximately 30 seconds the reduction in light transmission of these samples, at 650 nm, was measured (Molecular Devices Spectromax UV/visible spectrophotometer). A second measurement was taken at approximately 30 seconds later.
# [2] = Determination of thermodynamic solubility in phosphate buffer; assay type: physicochemical; settings: pH 7.4, aqueous buffer, thermodynamic from solid, ammonium phosphate buffer pH7.4, 290 mOsm, 37° C., nominal 1 mg/mL, read-out: Solubility in PO4 buffer
# Method in brief: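 Compound at nominal 1 mg/mL in ammonium phosphate buffer (pH7.4, 290 mOsm), shaken 1 h at 37° C., then centrifuged 15,000 g for 10 minutes at 37° C. Supernatant concentration measured by LC-MS/MS against a calibration line from a DMSO stock.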
# [3] = biological target: Human plasma kallikrein (Homo sapiens (Human), UniProt P03952); experiment: Determination of the IC50 for plasma kallikrein; assay type: biochemical; settings: 37° C., read-out: IC50 (human PKal)
# Method in brief: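 Residual activity (initial rate, absorbance at 410 nm) gave the IC50. Reactions at 37° C combined human plasma kallikrein, substrate H-DPro-Phe-Arg-AFC and a range of inhibitor concentrations.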
# [4] = biological target: Human KLK1 (Homo sapiens (Human), UniProt P06870); experiment: Determination of the IC50 for KLK1; assay type: biochemical; settings: Human KLK1, 37° C., substrate H-DVal-Leu-Arg-AFC
# Method in brief: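 hKLK1 + H-DVal-Leu-Arg-AFC, 37° C, varied cpd conc. Initial rate by A410 change → residual activity → IC50.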
# [5] = biological target: thrombin (Homo sapiens (Human), UniProt P00734); experiment: Determination of enzyme selectivity: thrombin; assay type: biochemical; settings: substrate at Km
# Excerpt: (§1) Determination of Enzyme Selectivity
# [6] = biological target: plasmin (Homo sapiens (Human), UniProt P00747); experiment: Determination of enzyme selectivity: plasmin; assay type: biochemical; settings: substrate at Km
# Excerpt: as §1
# [7] = biological target: Factor Xa (Homo sapiens (Human), UniProt P00742); experiment: Determination of enzyme selectivity: Factor Xa; assay type: biochemical; settings: substrate at Km
# Excerpt: as §1
# [8] = biological target: Factor XIIa (Homo sapiens (Human), UniProt P00748); experiment: Determination of enzyme selectivity: Factor XIIa; assay type: biochemical; settings: fluorogenic substrate at Km concentration
# Description: as §1
# Human serine protease enzymes plasmin, thrombin, trypsin, Factor Xa and Factor XIIa were assayed for enzymatic activity using an appropriate fluorogenic substrate. Protease activity was measured by monitoring the accumulation of liberated fluorescence from the substrate over 5 minutes. The linear rate of fluorescence increase per minute was expressed as percentage (%) activity. The Km for the cleavage of each substrate was determined by standard transformation of the Michaelis-Menten equation.
# [9] = test system: CA-I stimulated RVP; experiment: Carbonic anhydrase I induced retinal vascular permeability model; assay type: in vivo, Sprague Dawley rats; settings: rat
# Description: Carbonic Anhydrase I Induced Retinal Vascular Permeability Model
# After 30 mins, a second intravitreal injection (5 μL) of PBS or CA-I (200 ng/eye) was given. After 15 minutes, 10% sodium fluorescein was infused and retinal vascular permeability (RVP) was measured by vitreous fluorophotometry 75 minutes following the initial IVT injections.
# [10] = Ocular and systemic pharmacokinetics following a single IVT dose; assay type: in vivo, pigmented (Dutch-belted) rabbits; settings: rabbit
# Description: A pharmacokinetic study of Example 3 was performed to assess the ocular and systemic pharmacokinetics following a single IVT dose in pigmented (Dutch-belted) rabbits. […] Serial blood samples were collected in surviving rabbits.
# Ocular tissue concentration data are presented in FIG. 2, in which the solid line for each ocular tissue concentration is the average of the left and right eye of each rabbit.
# Sequence of Human KLK1 (P06870 25-262): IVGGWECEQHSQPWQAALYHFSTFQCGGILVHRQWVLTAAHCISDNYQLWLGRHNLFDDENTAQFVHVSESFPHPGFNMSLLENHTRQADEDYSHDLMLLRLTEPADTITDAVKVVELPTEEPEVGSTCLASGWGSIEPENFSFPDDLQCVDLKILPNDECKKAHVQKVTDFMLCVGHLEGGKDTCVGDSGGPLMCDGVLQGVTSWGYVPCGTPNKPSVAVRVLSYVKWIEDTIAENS
# Sequence of Factor XIIa (P00748 373-615): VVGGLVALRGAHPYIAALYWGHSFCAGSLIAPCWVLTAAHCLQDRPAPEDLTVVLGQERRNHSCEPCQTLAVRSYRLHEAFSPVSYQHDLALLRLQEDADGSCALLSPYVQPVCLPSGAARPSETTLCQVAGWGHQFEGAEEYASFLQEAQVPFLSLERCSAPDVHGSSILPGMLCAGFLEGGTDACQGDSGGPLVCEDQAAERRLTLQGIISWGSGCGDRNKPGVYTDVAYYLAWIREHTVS
# Sequence of Human plasma kallikrein (P03952 391-638): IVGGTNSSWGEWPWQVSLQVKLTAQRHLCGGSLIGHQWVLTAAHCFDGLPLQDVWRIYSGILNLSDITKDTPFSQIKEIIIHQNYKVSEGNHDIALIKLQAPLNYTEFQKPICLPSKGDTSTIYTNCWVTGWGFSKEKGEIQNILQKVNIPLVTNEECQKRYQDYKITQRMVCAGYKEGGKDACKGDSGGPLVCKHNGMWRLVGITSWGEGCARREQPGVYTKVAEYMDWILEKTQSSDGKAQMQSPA
# Sequence of Human plasma kallikrein (P03952 20-390 partner): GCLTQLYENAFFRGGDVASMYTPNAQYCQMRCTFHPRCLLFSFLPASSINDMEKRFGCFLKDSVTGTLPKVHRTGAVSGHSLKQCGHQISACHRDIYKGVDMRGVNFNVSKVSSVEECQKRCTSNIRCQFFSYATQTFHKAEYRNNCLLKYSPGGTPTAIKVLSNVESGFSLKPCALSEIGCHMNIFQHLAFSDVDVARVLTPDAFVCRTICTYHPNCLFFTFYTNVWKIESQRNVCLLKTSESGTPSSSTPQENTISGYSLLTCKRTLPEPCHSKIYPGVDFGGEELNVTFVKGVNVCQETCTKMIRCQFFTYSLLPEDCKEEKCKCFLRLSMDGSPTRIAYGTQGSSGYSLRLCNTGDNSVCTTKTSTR
# Sequence of Factor Xa (P00742 235-488): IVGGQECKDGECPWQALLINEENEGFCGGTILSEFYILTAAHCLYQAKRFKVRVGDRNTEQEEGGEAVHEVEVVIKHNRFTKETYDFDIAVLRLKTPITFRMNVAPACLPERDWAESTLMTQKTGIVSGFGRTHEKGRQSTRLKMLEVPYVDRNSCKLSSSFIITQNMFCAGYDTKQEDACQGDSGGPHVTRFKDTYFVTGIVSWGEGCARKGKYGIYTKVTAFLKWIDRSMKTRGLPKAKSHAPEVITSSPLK
# Sequence of Factor Xa (P00742 41-179 partner): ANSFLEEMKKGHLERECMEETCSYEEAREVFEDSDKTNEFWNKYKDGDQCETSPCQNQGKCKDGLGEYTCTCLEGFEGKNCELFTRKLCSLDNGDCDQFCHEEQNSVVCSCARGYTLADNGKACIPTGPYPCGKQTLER
# Sequence of plasmin (P00747 whole entry, looked up, change not shown): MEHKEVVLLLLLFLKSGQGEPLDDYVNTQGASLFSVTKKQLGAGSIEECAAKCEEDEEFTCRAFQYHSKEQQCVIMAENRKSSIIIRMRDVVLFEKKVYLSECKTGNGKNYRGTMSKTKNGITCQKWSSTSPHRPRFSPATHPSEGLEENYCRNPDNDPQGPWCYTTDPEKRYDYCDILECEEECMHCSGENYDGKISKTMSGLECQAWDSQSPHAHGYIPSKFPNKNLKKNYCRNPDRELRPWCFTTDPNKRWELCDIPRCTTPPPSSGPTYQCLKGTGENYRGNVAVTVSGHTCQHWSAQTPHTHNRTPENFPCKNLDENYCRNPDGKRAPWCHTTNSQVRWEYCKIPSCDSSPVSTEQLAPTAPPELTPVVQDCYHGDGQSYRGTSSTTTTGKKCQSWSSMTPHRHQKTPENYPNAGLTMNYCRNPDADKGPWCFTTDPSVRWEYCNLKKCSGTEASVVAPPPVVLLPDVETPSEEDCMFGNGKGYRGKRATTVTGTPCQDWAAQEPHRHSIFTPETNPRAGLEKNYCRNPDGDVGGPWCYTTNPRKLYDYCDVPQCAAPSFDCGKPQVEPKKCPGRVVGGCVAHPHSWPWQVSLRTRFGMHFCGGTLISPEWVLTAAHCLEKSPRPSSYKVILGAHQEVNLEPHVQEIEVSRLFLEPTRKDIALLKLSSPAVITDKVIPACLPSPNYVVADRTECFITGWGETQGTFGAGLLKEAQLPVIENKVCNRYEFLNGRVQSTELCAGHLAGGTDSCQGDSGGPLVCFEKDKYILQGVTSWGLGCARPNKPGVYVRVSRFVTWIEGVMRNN
# Sequence of plasmin (P00747 whole entry partner, looked up): as the sequence (P00747 whole entry, looked up, change not shown) above
SMILES,solubility at 1 h [2],IC50 [8],IC50 ([3]; substrate H-DPro-Phe-Arg-AFC),IC50 ([4]; Table 13),further results
"CCOc1ccc(C[C@@H](NC(=O)c2ccccc2)C(=O)N[C@@H](Cc2ccccc2)C(=O)NCc2ccc(CN)cc2)cc1 [Example 3, N—[(R)-1-[(S)-1-(4-Aminomethyl-benzylcarbamoyl)-2-phenyl-ethylcarbamoyl]-2-(4-ethoxy-phenyl)-ethyl]-benzamide]",10 µg/mL,> 10 µM,,,"solubility [1]: 12 µM; IC50 ([3]; fluorogenic substrate H-DPro-Phe-Arg-AFC): 22 nM; IC50 ([4]; Table 12): > 10 µM; IC50 [5]: > 40 µM; IC50 [6]: 3.5 µM; IC50 [7]: > 10 µM; reduction of RVP stimulated by CA-I injection ([9]; intravitreal injection 1 μM (5 μL), CA-I 200 ng/eye, RVP measured at 75 minutes): 53±21%; basal RVP ([9]; intravitreal injection of 1 μM alone (no CA-I), PBS alone 3.64±0.48, no effect): 3.29±0.21; decline in ocular tissue concentrations ([10]; IVT 210 ng per eye, vitreous, retina/choroid, aqueous humour, over 7 days): minimal; Plasma concentrations following IVT administration ([10]; single bilateral IVT 210 ng per eye, all time points): below 1 ng/mL"
"CCOc1ccc(C[C@@H](NC(=O)c2ccc(Cl)c(Cl)c2)C(=O)N[C@@H](Cc2ccccc2)C(=O)NCc2ccc(CN)cc2)cc1 [Example 93, N-[(R)-1-[(S)-1-(4-Aminomethyl-benzylcarbamoyl)-2-phenyl-ethylcarbamoyl]-2-(4-ethoxy-phenyl)-ethyl]-3,4-dichloro-benzamide]",0.01 µg/mL,> 10 µM,175 nM,> 10 µM,
"CCOc1ccc(C[C@@H](NC(=O)c2ccccn2)C(=O)N[C@@H](Cc2cccs2)C(=O)NCc2ccc(CN)cc2)cc1 [Example 157, Pyridine-2-carboxylic acid [(R)-1-[(S)-1-(4-aminomethyl-benzylcarbamoyl)-2-thiophen-2-yl-ethylcarbamoyl]-2-(4-ethoxy-phenyl)-ethyl]-amide]",4.77 µg/mL,> 10 µM,36 nM,> 10 µM,
"CCOc1ccc(C[C@@H](NC(=O)c2ccccc2)C(=O)N[C@@H](Cc2cccnc2)C(=O)NCc2ccc(CN)c(C)c2)cc1 [Example 192, N-[(R)-1-[(S)-1-(4-Aminomethyl-3-methyl-benzylcarbamoyl)-2-pyridin-3-yl-ethylcarbamoyl]-2-(4-ethoxy-phenyl)-ethyl]-benzamide]",,> 10 µM,12 nM,> 10 µM,
"CCOc1ccc(C[C@@H](NC(=O)c2sccc2NC(C)=O)C(=O)N[C@@H](Cc2ccsc2)C(=O)NCc2ccc(CN)cc2)cc1 [Example 193, 3-Acetylamino-thiophene-2-carboxylic acid [(R)-1-[(S)-1-(4-aminomethyl-benzylcarbamoyl)-2-thiophen-3-yl-ethylcarbamoyl]-2-(4-ethoxy-phenyl)-ethyl]-amide]",,> 10 µM,25 nM,> 10 µM,
"CCOc1ccc(C[C@@H](NC(=O)c2sccc2N)C(=O)N[C@@H](Cc2csc3ccccc23)C(=O)NCc2ccc(CN)cc2)cc1 [Example 194, 3-Amino-thiophene-2-carboxylic acid [(R)-1-[(S)-1-(4-aminomethyl-benzylcarbamoyl)-2-benzo[b]thiophen-3-yl-ethylcarbamoyl]-2-(4-ethoxy-phenyl)-ethyl]-amide]",,> 10 µM,13 nM,7.1 µM,
"CCOc1ccc(C[C@@H](NC(=O)c2sccc2NC(C)=O)C(=O)N[C@@H](Cc2csc3ccccc23)C(=O)NCc2ccc(CN)cc2)cc1 [Example 195, 3-Acetylamino-thiophene-2-carboxylic acid [(R)-1-[(S)-1-(4-aminomethyl-benzylcarbamoyl)-2-benzo[b]thiophen-3-yl-ethylcarbamoyl]-2-(4-ethoxy-phenyl)-ethyl]-amide]",,> 10 µM,14 nM,> 10 µM,
"CCOc1ccc(C[C@@H](NC(=O)c2sccc2Cl)C(=O)N(C)[C@@H](Cc2ccccc2)C(=O)NCc2ccc(CN)cc2)cc1 [Example 196, 3-Chloro-thiophene-2-carboxylic acid [(R)-1-{[(S)-1-(4-aminomethyl-benzylcarbamoyl)-2-phenyl-ethyl]-methyl-carbamoyl}-2-(4-ethoxy-phenyl)-ethyl]-amide]",,> 10 µM,32 nM,9.9 µM,
"CCOc1ccc(C[C@@H](NC(=O)c2ccccc2)C(=O)N[C@H](C(=O)NCc2ccc(CN)cc2)[C@H](O)c2ccccc2)cc1 [Example 197, N-[(R)-1-[(1S,2R)-1-(4-Aminomethyl-benzylcarbamoyl)-2-hydroxy-2-phenyl-ethylcarbamoyl]-2-(4-ethoxy-phenyl)-ethyl]-benzamide]",,> 10 µM,12 nM,> 10 µM,
"CCOc1ccc(C[C@@H](NC(=O)c2sccc2Cl)C(=O)N[C@H](C(=O)NCc2ccc(CN)cc2)[C@H](O)c2ccccc2)cc1 [Example 198, 3-Chloro-thiophene-2-carboxylic acid [(R)-1-[(1S,2R)-1-(4-aminomethyl-benzylcarbamoyl)-2-hydroxy-2-phenyl-ethylcarbamoyl]-2-(4-ethoxy-phenyl)-ethyl]-amide]",,> 10 µM,7 nM,9.1 µM,
"CCOc1ccc(C[C@@H](NC(=O)c2ccc(C)cc2)C(=O)N[C@@H](Cc2cccnc2)C(=O)NCc2ccc(CN)cc2)cc1 [Example 199, N—[(R)-1-[(S)-1-(4-Aminomethyl-benzylcarbamoyl)-2-pyridin-3-yl-ethylcarbamoyl]-2-(4-ethoxy-phenyl)-ethyl]-4-methyl-benzamide]",15.9 µg/mL,> 10 µM,10 nM,> 10 µM,
"NCc1ccc(CNC(=O)[C@H](Cc2ccccc2)NC(=O)C(Cc2ccc(OCC(F)(F)F)cc2)NC(=O)c2ccccc2)cc1 (stereo partly drawn) [Example 201, N-{(R,S)-1-[(S)-1-(4-Aminomethyl-benzylcarbamoyl)-2-phenyl-ethylcarbamoyl]-2-[4-(2,2,2-trifluoro-ethoxy)-phenyl]-ethyl}-benzamide]",,> 10 µM,12 nM,> 10 µM,
